Measured values as given in paper PMC9693510, “High-Throughput Metabolic Soft-Spot Identification in Liver Microsomes by LC/UV/MS: Application of a Single Variable Incubation Time Approach” (Molecules, 2022).
Where two headings read alike, the source gives them in different places.

Key:
[1] = Metabolic soft-spot determination in HLM using LC/UV/Qtrap
Experimental: A specific incubation time for the individual test compounds was set up for 1–20 min based on their metabolic stability T1/2 values (Table 1). An LC/UV/Qtrap system with an Ultimate XB-C18 column (100 mm × 2.1 mm, 1.8 µm, Welch, China) was employed for quantitative and qualitative analyses of metabolites of the test compounds in HLM incubations. The mobile phases were the same as the metabolic stability assay, and the flow rate was 0.3 mL/min. […] The mass spectrometer was operated in positive ion mode using a successive multiple ion monitoring-triggered enhanced product ion scan (MIM-EPI) mode. […] All the ion source parameters were set as the following values: CUR: 30 psi; IS: 5500 V; TEM: 500 °C; GS1 and GS2: 50 psi; DP: 70 V. A criterion for the data-dependent EPI was set for the three most intense ions in each dynamic background subtraction (DBS) survey scan spectrum with an intensity threshold of 500 cps. The CE was set to 5 eV for the survey scan and 40 eV with CE spread (CES) of 15 eV for the dependent EPI scan. The scan speed for ER and EPI were 250 amu/s and 20,000 amu/s, respectively. LC/UV profiles of individual incubation were generated to reveal major metabolites using wavelengths on the λmax of parent compounds (Table S1). Protonated molecules of major metabolites were determined by matching major metabolite peak(s) in LC/UV profiles to similar ion peaks shown in LC/MS profiles from the MIM scanning or data processing. EIC, PIF, and NLF tools on PeakView SoftwareTM 1.2 (AB SCIEX, Foster City, CA, USA) were used to process LC/MS and LC/MS2 datasets. MS/MS spectral data of major metabolites were retrieved from corresponding LC/MS2 data based on their protonated molecules. The structural characterization of major metabolites was carried based on interpretation of their MS/MS spectra and biotransformation knowledge.

in vitro = settings: human, microsomes, pH 7.4
[2] = Metabolic soft-spot determination in HLM using LC/UV/Q-TOF (Triple TOF); settings: 8 min
Experimental: (§1) Supernatants of incubation samples were dried under nitrogen and then reconstituted in 100 μL of 5% acetonitrile in water prior to analysis using LC/UV/HRMS.
(§2) An LC/MS system consisted of an LC instrument (Shimadzu HPLC with a photodiode array detector (PDA), Shimadzu, Kyoto, Japan) and TripleTOF (AB 4600, Sciex, Framingham, MA, USA) was employed. LC separation was carried out using a Phenomenex Kinetex-C18 (2.1 × 150 mm, 2.6 μm, CA) and a mobile phase comprised of 0.1% formic acid (v/v) in water (solvent A) and 0.1% formic acid in acetonitrile (v/v) (solvent B). The total running time was 5 min, and the flow rate was 0.4 mL/min. […] The mass spectrometer was operating in the positive electrospray ionization mode in the m/z range of 100–1000. Dynamic background subtraction (DBS) was employed to record full-scan MS and MS/MS data simultaneously. Two approaches were used for finding and confirming protonated molecules of major metabolites. One approach was to directly get the information by reviewing full-scan MS spectra of peaks in unprocessed LC/MS dataset, which had very similar LC retention times and peak shapes to those of major metabolites shown in corresponding LC/UV profiles.

[3] = human, 3 µM, pH 7.4; for Major metabolites relative abundance (% of total UV peak areas of drug and its metabolites): 60 min
Experimental: as §1, §2

[4] = 0.5 µM, HLM 0.5 mg/mL, 60 min, LC/MS analysis of the parent drug; cited from earlier work
[5] = Determination of metabolic stability in HLM; settings: human, microsomes, pH 7.4
[6] = HLM, 10 µM, 60 min, cited from earlier work

For CCNCc1cc(Nc2ccnc3cc(Cl)ccc23)ccc1O [AM1], the “Major metabolites relative abundance (% of total UV peak areas of drug and its metabolites)” value ([1]; human, 1 min, 3 µM, pH 7.4) was “Deethylation: AM1 (26.5%)”.

In the case of CCN(CC)Cc1cc(Nc2ccnc3cc(Cl)ccc23)ccc1O [Amodiaquine, amodiaquine], the “Disappearance of the parent” value ([1]; human, 1 min, 3 µM, pH 7.4) is reported as 23%, the “The parent drug relative abundance (% of total UV peak areas of drug and its metabolites)” value ([1]; human, 1 min, 3 µM, pH 7.4) is reported as “Amodiaquine (77.0%)” and the half-life at 0.5 µM (in vitro) is reported as 1.3 min.

In the case of O=C1CC2(CCC(O)C2)CC(=O)N1CCCCN1CCN(c2ncccn2)CC1 (centres unmarked) [B3], the “Major metabolites relative abundance (% of total UV peak areas of drug and its metabolites)” value ([2]; buspirone 3 μM) is reported as 12.1%.

In the case of O=C1CC2(CCCC2)C(O)C(=O)N1CCCCN1CCN(c2ncccn2)CC1 (centres unmarked) [B10], the “Major metabolites relative abundance (% of total UV peak areas of drug and its metabolites)” value ([2]; buspirone 3 μM) is reported as 16.5%.

With O=C1CC2(CCCC2)CC(=O)N1CCCCN1CCN(c2ncc(O)cn2)CC1 [B12] the “Major metabolites relative abundance (% of total UV peak areas of drug and its metabolites)” value ([2]; buspirone 3 μM) was 5.2%.

In the case of O=C1CC2(CCCC2)CC(=O)N1CCCC[N+]1([O-])CCN(c2ncccn2)CC1 [B15], the “Major metabolites relative abundance (% of total UV peak areas of drug and its metabolites)” value ([2]; buspirone 3 μM) is reported as 7.1%.

For O=C1CC2(CCCC2)CC(=O)N1CCCCN1CCN(c2ncccn2)CC1 [Buspirone, buspirone, reference compound], the “The parent drug relative abundance (% of total UV peak areas of drug and its metabolites)” value ([3]; 8 min) is listed as “Buspirone (59.1%)” and the “T1/2 in HLM” value [4] is listed as “Buspirone ^d (7.6 min)”.

For COc1ccc2c(c1)[C@]13CCCC[C@@H]1[C@H](C2)N(C)CC3 [Dextromethorphan, dextromethorphan], the “The parent drug relative abundance (% of total UV peak areas of drug and its metabolites)” value ([1]; dextromethorphan 3 μM, 30 min, HLM) was “Dextromethorphan (75.5%)”, the “The parent drug relative abundance (% of total UV peak areas of drug and its metabolites)” value ([1]; dextromethorphan 3 μM, 30 min, HLM, listed as dextromethorphan) was 75.5% and the half-life at 0.5 µM [5] was 24 min.

For CN1CCN2c3ncc(O)cc3Cc3ccccc3C2C1 (centres unmarked) [M1], the “Major metabolites relative abundance (% of total UV peak areas of drug and its metabolites)” value [3] was 10.7%.

For c1ccc2c(c1)Cc1cccnc1N1CCNCC21 (centres unmarked) [M2], the “Major metabolites relative abundance (% of total UV peak areas of drug and its metabolites)” value [3] was 8.1%.

With OCc1ncc2n1-c1ccc(Cl)cc1C(c1ccccc1F)=NC2 [MM2] the “Major metabolites relative abundance (% of total UV peak areas of drug and its metabolites)” value ([1]; midazolam 3 μM, 2 min, HLM) was “Mono-oxidation: MM2 (29.0%)”.

With Cc1ncc2n1-c1ccc(Cl)cc1C(c1ccccc1F)=NC2 [Midazolam, midazolam] the “Disappearance of the parent” value ([1]; midazolam 3 μM, 2 min, HLM) was 31%.

In the case of CNCCCC(C#N)(c1ccc(OC)c(OC)c1)C(C)C (centres unmarked) [V1], the “Major metabolites relative abundance (% of total UV peak areas of drug and its metabolites)” value ([2]; verapamil 5 μM) is reported as 6.1%.

For COc1ccc(CCNCCCC(C#N)(c2ccc(OC)c(OC)c2)C(C)C)cc1OC (centres unmarked) [V5], the “Major metabolites relative abundance (% of total UV peak areas of drug and its metabolites)” value ([2]; verapamil 5 μM) was 14.7%.

With CNCCCC(C#N)(c1ccc(OC)c(OC)c1)C(C)C (centres unmarked) [VM2] the “Major metabolites relative abundance (% of total UV peak areas of drug and its metabolites)” value ([1]; human, 4 min, 3 µM, pH 7.4) was 8.9%.

With COc1ccc(CCNCCCC(C#N)(c2ccc(OC)c(OC)c2)C(C)C)cc1OC (centres unmarked) [VM8] the “Major metabolites relative abundance (% of total UV peak areas of drug and its metabolites)” value ([1]; human, 4 min, 3 µM, pH 7.4) was 19.0%.

In the case of CN(C)CCC1(c2ccccc2)CCc2ccccc2C1=O (centres unmarked) [nafenodone], the “Disappearance of the parent” value ([6]; estimated) is given as “over 80%” and the “Number of oxidative metabolites formed” value [6] is given as 26.
